From patent US7592419 come the findings set out here.

The conditions of this series: rcm bond, CH2Cl2, 25.0 °C.

Structures are written as SMILES. Read-outs that look alike come from different tables or passages of the source.

For the setting “from C=CCCCC[C@H](NC(=O)[C@@H]1[C@H]2CC(C)(C)O[C@H]2CN1C(=O)[C@H](CCCCC=C)NC(=O)OCc1ccccc1)C(=O)OC, Grubbs I [(Cy3P)2Cl2Ru=CHPh], 50.0 mM, 24.0 h”, `COC(=O)[C@@H]1CCCCC=CCCCC[C@H](NC(=O)OCc2ccccc2)C(=O)N2C[C@@H]3OC(C)(C)C[C@@H]3[C@H]2C(=O)N1` showed a ring closure, yield of all isomers of 58.9%.
For the compound `COC(=O)[C@@H]1CCCCC=CCCCC[C@H](NC(=O)OC(C)(C)C)C(=O)N2C[C@H]3[C@@H]([C@H]2C(=O)N1)C3(C)C`, the ring closure, yield of all isomers (from C=CCCCC[C@H](NC(=O)[C@@H]1[C@@H]2[C@H](CN1C(=O)[C@H](CCCCC=C)NC(=O)OC(C)(C)C)C2(C)C)C(=O)OC, Grubbs I [(Cy3P)2Cl2Ru=CHPh], 100.0 mM, 24.0 h) came out at 48.2%.
`COC(=O)[C@@H]1CCCCC=CCCCC(C)(C)[C@H](NC(=O)OCc2ccccc2)C(=O)N2C[C@H]3[C@@H]([C@H]2C(=O)N1)C3(C)C` returned a ring closure, yield of all isomers (from C=CCCCC[C@H](NC(=O)[C@@H]1[C@@H]2[C@H](CN1C(=O)[C@@H](NC(=O)OCc1ccccc1)C(C)(C)CCCC=C)C2(C)C)C(=O)OC, Grubbs catalyst (Grubbs I), 101.1 mM, 24.0 h) of 44.5%.
Consider `COC(=O)CNC(=O)C(O)[C@@H]1CCCC=CCC[C@H](NC(=O)OCC(C)C)C(=O)N2CCC[C@H]2C(=O)N1` (stereo partly shown), for which the ring closure, yield of all isomers (from C=CCCC[C@H](NC(=O)[C@@H]1CCCN1C(=O)[C@H](CCC=C)NC(=O)OCC(C)C)C(O)C(=O)NCC(=O)OC, Grubbs catalyst (Grubbs I), 3.0 mM, 65.0 h) is 20%.
